The target of this series is UBE2N. Put plainly: reporter assay of Huesken 2005. To be noted: siRNA.

Oligonucleotides are given in HELM: sugar(base)linkage, 5' to 3'; d 2'-deoxyribose, r ribose, m 2'-O-methylribose, p phosphate. ss, as = sense and antisense strand
Further: test concentration or dose not given here.

Regarding “RNA1{r(A)p.r(A)p.r(A)p.r(U)p.r(G)p.r(A)p.r(U)p.r(G)p.r(U)p.r(A)p.r(G)p.r(C)p.r(G)p.r(G)p.r(A)p.r(G)p.r(C)p.r(A)p.r(G)p.d(T)p.d(T)}|RNA2{r(C)p.r(U)p.r(G)p.r(C)p.r(U)p.r(C)p.r(C)p.r(G)p.r(C)p.r(U)p.r(A)p.r(C)p.r(A)p.r(U)p.r(C)p.r(A)p.r(U)p.r(U)p.r(U)p.d(G)p.d(C)}$$$RNA1{StrandType:ss}|RNA2{StrandType:as}$”, the normalised inhibition (eCFP-eYFP dual reporter) is 43.2%.

The substance “RNA1{r(U)p.r(A)p.r(G)p.r(A)p.r(U)p.r(A)p.r(U)p.r(U)p.r(U)p.r(U)p.r(G)p.r(A)p.r(A)p.r(A)p.r(G)p.r(A)p.r(U)p.r(A)p.r(A)p.d(T)p.d(T)}|RNA2{r(U)p.r(U)p.r(A)p.r(U)p.r(C)p.r(U)p.r(U)p.r(U)p.r(C)p.r(A)p.r(A)p.r(A)p.r(A)p.r(U)p.r(A)p.r(U)p.r(C)p.r(U)p.r(A)p.d(G)p.d(A)}$$$RNA1{StrandType:ss}|RNA2{StrandType:as}$” registered a normalised inhibition (eCFP-eYFP dual reporter) of 80.6%.

For “RNA1{r(A)p.r(U)p.r(C)p.r(C)p.r(G)p.r(C)p.r(A)p.r(C)p.r(A)p.r(G)p.r(U)p.r(U)p.r(C)p.r(U)p.r(G)p.r(C)p.r(U)p.r(A)p.r(U)p.d(T)p.d(T)}|RNA2{r(A)p.r(U)p.r(A)p.r(G)p.r(C)p.r(A)p.r(G)p.r(A)p.r(A)p.r(C)p.r(U)p.r(G)p.r(U)p.r(G)p.r(C)p.r(G)p.r(G)p.r(A)p.r(U)p.d(C)p.d(T)}$$$RNA1{StrandType:ss}|RNA2{StrandType:as}$”, the normalised inhibition (eCFP-eYFP dual reporter) worked out at 54.2%.

The substance “RNA1{r(A)p.r(U)p.r(A)p.r(G)p.r(A)p.r(A)p.r(A)p.r(C)p.r(A)p.r(G)p.r(C)p.r(U)p.r(A)p.r(G)p.r(A)p.r(G)p.r(C)p.r(A)p.r(U)p.d(T)p.d(T)}|RNA2{r(A)p.r(U)p.r(G)p.r(C)p.r(U)p.r(C)p.r(U)p.r(A)p.r(G)p.r(C)p.r(U)p.r(G)p.r(U)p.r(U)p.r(U)p.r(C)p.r(U)p.r(A)p.r(U)p.d(G)p.d(G)}$$$RNA1{StrandType:ss}|RNA2{StrandType:as}$” came in with a normalised inhibition (eCFP-eYFP dual reporter) of 91.8%.

The substance “RNA1{r(A)p.r(G)p.r(A)p.r(A)p.r(C)p.r(C)p.r(A)p.r(G)p.r(U)p.r(U)p.r(C)p.r(C)p.r(U)p.r(G)p.r(G)p.r(C)p.r(A)p.r(U)p.r(C)p.d(T)p.d(T)}|RNA2{r(G)p.r(A)p.r(U)p.r(G)p.r(C)p.r(C)p.r(A)p.r(G)p.r(G)p.r(A)p.r(A)p.r(C)p.r(U)p.r(G)p.r(G)p.r(U)p.r(U)p.r(C)p.r(U)p.d(G)p.d(C)}$$$RNA1{StrandType:ss}|RNA2{StrandType:as}$” displayed a normalised inhibition (eCFP-eYFP dual reporter) of 60.7%.

As for “RNA1{r(A)p.r(U)p.r(U)p.r(A)p.r(G)p.r(C)p.r(A)p.r(A)p.r(A)p.r(U)p.r(G)p.r(A)p.r(U)p.r(G)p.r(U)p.r(A)p.r(G)p.r(C)p.r(G)p.d(T)p.d(T)}|RNA2{r(C)p.r(G)p.r(C)p.r(U)p.r(A)p.r(C)p.r(A)p.r(U)p.r(C)p.r(A)p.r(U)p.r(U)p.r(U)p.r(G)p.r(C)p.r(U)p.r(A)p.r(A)p.r(U)p.d(G)p.d(G)}$$$RNA1{StrandType:ss}|RNA2{StrandType:as}$”, the normalised inhibition (eCFP-eYFP dual reporter) was 34.2%.

“RNA1{r(A)p.r(C)p.r(C)p.r(A)p.r(A)p.r(A)p.r(A)p.r(U)p.r(U)p.r(U)p.r(A)p.r(U)p.r(C)p.r(A)p.r(U)p.r(C)p.r(C)p.r(U)p.r(A)p.d(T)p.d(T)}|RNA2{r(U)p.r(A)p.r(G)p.r(G)p.r(A)p.r(U)p.r(G)p.r(A)p.r(U)p.r(A)p.r(A)p.r(A)p.r(U)p.r(U)p.r(U)p.r(U)p.r(G)p.r(G)p.r(U)p.d(C)p.d(A)}$$$RNA1{StrandType:ss}|RNA2{StrandType:as}$” registered a normalised inhibition (eCFP-eYFP dual reporter) of 81.6%.

In turn, “RNA1{r(C)p.r(A)p.r(U)p.r(U)p.r(A)p.r(G)p.r(C)p.r(A)p.r(A)p.r(A)p.r(U)p.r(G)p.r(A)p.r(U)p.r(G)p.r(U)p.r(A)p.r(G)p.r(C)p.d(T)p.d(T)}|RNA2{r(G)p.r(C)p.r(U)p.r(A)p.r(C)p.r(A)p.r(U)p.r(C)p.r(A)p.r(U)p.r(U)p.r(U)p.r(G)p.r(C)p.r(U)p.r(A)p.r(A)p.r(U)p.r(G)p.d(G)p.d(A)}$$$RNA1{StrandType:ss}|RNA2{StrandType:as}$” yielded a normalised inhibition (eCFP-eYFP dual reporter) of 30.2%.

In turn, “RNA1{r(C)p.r(C)p.r(C)p.r(A)p.r(A)p.r(G)p.r(C)p.r(C)p.r(A)p.r(U)p.r(A)p.r(G)p.r(A)p.r(A)p.r(A)p.r(C)p.r(A)p.r(G)p.r(C)p.d(T)p.d(T)}|RNA2{r(G)p.r(C)p.r(U)p.r(G)p.r(U)p.r(U)p.r(U)p.r(C)p.r(U)p.r(A)p.r(U)p.r(G)p.r(G)p.r(C)p.r(U)p.r(U)p.r(G)p.r(G)p.r(G)p.d(C)p.d(T)}$$$RNA1{StrandType:ss}|RNA2{StrandType:as}$” returned a normalised inhibition (eCFP-eYFP dual reporter) of 60.2%.

For the substance “RNA1{r(U)p.r(G)p.r(G)p.r(C)p.r(A)p.r(U)p.r(C)p.r(A)p.r(A)p.r(A)p.r(G)p.r(C)p.r(C)p.r(G)p.r(A)p.r(A)p.r(C)p.r(C)p.r(A)p.d(T)p.d(T)}|RNA2{r(U)p.r(G)p.r(G)p.r(U)p.r(U)p.r(C)p.r(G)p.r(G)p.r(C)p.r(U)p.r(U)p.r(U)p.r(G)p.r(A)p.r(U)p.r(G)p.r(C)p.r(C)p.r(A)p.d(G)p.d(G)}$$$RNA1{StrandType:ss}|RNA2{StrandType:as}$”, the normalised inhibition (eCFP-eYFP dual reporter) turned out to be 81.6%.

“RNA1{r(C)p.r(A)p.r(U)p.r(A)p.r(G)p.r(A)p.r(A)p.r(A)p.r(C)p.r(A)p.r(G)p.r(C)p.r(U)p.r(A)p.r(G)p.r(A)p.r(G)p.r(C)p.r(A)p.d(T)p.d(T)}|RNA2{r(U)p.r(G)p.r(C)p.r(U)p.r(C)p.r(U)p.r(A)p.r(G)p.r(C)p.r(U)p.r(G)p.r(U)p.r(U)p.r(U)p.r(C)p.r(U)p.r(A)p.r(U)p.r(G)p.d(G)p.d(C)}$$$RNA1{StrandType:ss}|RNA2{StrandType:as}$” displayed a normalised inhibition (eCFP-eYFP dual reporter) of 95.3%.

Substance “RNA1{r(A)p.r(C)p.r(U)p.r(U)p.r(G)p.r(A)p.r(A)p.r(C)p.r(U)p.r(A)p.r(U)p.r(U)p.r(C)p.r(C)p.r(U)p.r(U)p.r(C)p.r(C)p.r(A)p.d(T)p.d(T)}|RNA2{r(U)p.r(G)p.r(G)p.r(A)p.r(A)p.r(G)p.r(G)p.r(A)p.r(A)p.r(U)p.r(A)p.r(G)p.r(U)p.r(U)p.r(C)p.r(A)p.r(A)p.r(G)p.r(U)p.d(T)p.d(T)}$$$RNA1{StrandType:ss}|RNA2{StrandType:as}$” showed a normalised inhibition (eCFP-eYFP dual reporter) of 96.1%.

The substance “RNA1{r(U)p.r(U)p.r(G)p.r(C)p.r(U)p.r(G)p.r(G)p.r(C)p.r(C)p.r(C)p.r(U)p.r(C)p.r(A)p.r(G)p.r(G)p.r(A)p.r(U)p.r(U)p.r(C)p.d(T)p.d(T)}|RNA2{r(G)p.r(A)p.r(A)p.r(U)p.r(C)p.r(C)p.r(U)p.r(G)p.r(A)p.r(G)p.r(G)p.r(G)p.r(C)p.r(C)p.r(A)p.r(G)p.r(C)p.r(A)p.r(A)p.d(T)p.d(G)}$$$RNA1{StrandType:ss}|RNA2{StrandType:as}$” came in with a normalised inhibition (eCFP-eYFP dual reporter) of 50.2%.

Regarding “RNA1{r(C)p.r(A)p.r(G)p.r(U)p.r(U)p.r(C)p.r(C)p.r(U)p.r(G)p.r(G)p.r(C)p.r(A)p.r(U)p.r(C)p.r(A)p.r(A)p.r(A)p.r(G)p.r(C)p.d(T)p.d(T)}|RNA2{r(G)p.r(C)p.r(U)p.r(U)p.r(U)p.r(G)p.r(A)p.r(U)p.r(G)p.r(C)p.r(C)p.r(A)p.r(G)p.r(G)p.r(A)p.r(A)p.r(C)p.r(U)p.r(G)p.d(G)p.d(T)}$$$RNA1{StrandType:ss}|RNA2{StrandType:as}$”, the normalised inhibition (eCFP-eYFP dual reporter) stood at 61.4%.

As for “RNA1{r(A)p.r(U)p.r(G)p.r(U)p.r(C)p.r(U)p.r(A)p.r(G)p.r(A)p.r(U)p.r(A)p.r(U)p.r(U)p.r(U)p.r(U)p.r(G)p.r(A)p.r(A)p.r(A)p.d(T)p.d(T)}|RNA2{r(U)p.r(U)p.r(U)p.r(C)p.r(A)p.r(A)p.r(A)p.r(A)p.r(U)p.r(A)p.r(U)p.r(C)p.r(U)p.r(A)p.r(G)p.r(A)p.r(C)p.r(A)p.r(U)p.d(A)p.d(T)}$$$RNA1{StrandType:ss}|RNA2{StrandType:as}$”, the normalised inhibition (eCFP-eYFP dual reporter) is 75.9%.

Regarding “RNA1{r(C)p.r(G)p.r(A)p.r(A)p.r(G)p.r(C)p.r(C)p.r(C)p.r(A)p.r(A)p.r(G)p.r(C)p.r(C)p.r(A)p.r(U)p.r(A)p.r(G)p.r(A)p.r(A)p.d(T)p.d(T)}|RNA2{r(U)p.r(U)p.r(C)p.r(U)p.r(A)p.r(U)p.r(G)p.r(G)p.r(C)p.r(U)p.r(U)p.r(G)p.r(G)p.r(G)p.r(C)p.r(U)p.r(U)p.r(C)p.r(G)p.d(T)p.d(T)}$$$RNA1{StrandType:ss}|RNA2{StrandType:as}$”, the normalised inhibition (eCFP-eYFP dual reporter) is 84.1%.

“RNA1{r(A)p.r(C)p.r(G)p.r(C)p.r(C)p.r(C)p.r(G)p.r(U)p.r(U)p.r(A)p.r(U)p.r(U)p.r(U)p.r(U)p.r(C)p.r(A)p.r(U)p.r(G)p.r(U)p.d(T)p.d(T)}|RNA2{r(A)p.r(C)p.r(A)p.r(U)p.r(G)p.r(A)p.r(A)p.r(A)p.r(A)p.r(U)p.r(A)p.r(A)p.r(C)p.r(G)p.r(G)p.r(G)p.r(C)p.r(G)p.r(U)p.d(T)p.d(G)}$$$RNA1{StrandType:ss}|RNA2{StrandType:as}$” yielded a normalised inhibition (eCFP-eYFP dual reporter) of 62.4%.

On to “RNA1{r(C)p.r(U)p.r(U)p.r(U)p.r(G)p.r(A)p.r(G)p.r(G)p.r(G)p.r(A)p.r(G)p.r(G)p.r(G)p.r(A)p.r(C)p.r(U)p.r(U)p.r(U)p.r(U)p.d(T)p.d(T)}|RNA2{r(A)p.r(A)p.r(A)p.r(A)p.r(G)p.r(U)p.r(C)p.r(C)p.r(C)p.r(U)p.r(C)p.r(C)p.r(C)p.r(U)p.r(C)p.r(A)p.r(A)p.r(A)p.r(G)p.d(G)p.d(G)}$$$RNA1{StrandType:ss}|RNA2{StrandType:as}$”, for which the normalised inhibition (eCFP-eYFP dual reporter) amounted to 70.6%.

On to “RNA1{r(A)p.r(C)p.r(C)p.r(C)p.r(A)p.r(A)p.r(U)p.r(G)p.r(G)p.r(C)p.r(A)p.r(G)p.r(C)p.r(C)p.r(C)p.r(C)p.r(U)p.r(A)p.r(A)p.d(T)p.d(T)}|RNA2{r(U)p.r(U)p.r(A)p.r(G)p.r(G)p.r(G)p.r(G)p.r(C)p.r(U)p.r(G)p.r(C)p.r(C)p.r(A)p.r(U)p.r(U)p.r(G)p.r(G)p.r(G)p.r(U)p.d(A)p.d(T)}$$$RNA1{StrandType:ss}|RNA2{StrandType:as}$”, for which the normalised inhibition (eCFP-eYFP dual reporter) was determined as 64%.

For the substance “RNA1{r(U)p.r(U)p.r(U)p.r(C)p.r(A)p.r(U)p.r(G)p.r(U)p.r(G)p.r(G)p.r(U)p.r(C)p.r(A)p.r(U)p.r(U)p.r(G)p.r(C)p.r(U)p.r(G)p.d(T)p.d(T)}|RNA2{r(C)p.r(A)p.r(G)p.r(C)p.r(A)p.r(A)p.r(U)p.r(G)p.r(A)p.r(C)p.r(C)p.r(A)p.r(C)p.r(A)p.r(U)p.r(G)p.r(A)p.r(A)p.r(A)p.d(A)p.d(T)}$$$RNA1{StrandType:ss}|RNA2{StrandType:as}$”, the normalised inhibition (eCFP-eYFP dual reporter) is 39.8%.

The values are drawn from the OligoGym collection.
